# Data published in ChEMBL document CHEMBL1201862, “PubChem BioAssay data set” (2004).
# Calls of active or inactive are those of the source.
# How the values were obtained:
# [1] = biological target: T1, Carboxy-terminal domain RNA polymerase II polypeptide A small phosphatase 1 (Homo sapiens, UniProt Q9GZU7); assay: inhibitors of CTDSP1, concentration-response testing, biochemical assay, absorbance-based, actives from ultra-high-throughput screening (AID 540297); assay type: functional
# T1 sequence (Q9GZU7 whole entry): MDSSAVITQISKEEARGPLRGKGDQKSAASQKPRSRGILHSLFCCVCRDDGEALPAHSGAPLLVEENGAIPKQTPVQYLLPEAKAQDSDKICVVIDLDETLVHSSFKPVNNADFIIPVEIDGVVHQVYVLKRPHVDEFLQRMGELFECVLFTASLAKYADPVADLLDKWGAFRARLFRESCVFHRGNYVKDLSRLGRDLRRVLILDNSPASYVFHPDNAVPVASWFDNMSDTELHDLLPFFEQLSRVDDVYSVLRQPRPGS
# [2] = biological target: Cytochrome P450 3A4 (Homo sapiens, UniProt P08684);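 also: CYP3A4 tested as one member of a cytochrome P450 panel screen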
# [3] = biological target: T2, Short transient receptor potential channel 4 (Mus musculus, UniProt Q9QUQ5); assay: mouse TRPC4 channel activators, dose response, cell-based, HEK293 TRPC4/mu-opioid, Fluo-4 calcium (AID 434937); assay type: functional
# T2 sequence (Q9QUQ5 whole entry): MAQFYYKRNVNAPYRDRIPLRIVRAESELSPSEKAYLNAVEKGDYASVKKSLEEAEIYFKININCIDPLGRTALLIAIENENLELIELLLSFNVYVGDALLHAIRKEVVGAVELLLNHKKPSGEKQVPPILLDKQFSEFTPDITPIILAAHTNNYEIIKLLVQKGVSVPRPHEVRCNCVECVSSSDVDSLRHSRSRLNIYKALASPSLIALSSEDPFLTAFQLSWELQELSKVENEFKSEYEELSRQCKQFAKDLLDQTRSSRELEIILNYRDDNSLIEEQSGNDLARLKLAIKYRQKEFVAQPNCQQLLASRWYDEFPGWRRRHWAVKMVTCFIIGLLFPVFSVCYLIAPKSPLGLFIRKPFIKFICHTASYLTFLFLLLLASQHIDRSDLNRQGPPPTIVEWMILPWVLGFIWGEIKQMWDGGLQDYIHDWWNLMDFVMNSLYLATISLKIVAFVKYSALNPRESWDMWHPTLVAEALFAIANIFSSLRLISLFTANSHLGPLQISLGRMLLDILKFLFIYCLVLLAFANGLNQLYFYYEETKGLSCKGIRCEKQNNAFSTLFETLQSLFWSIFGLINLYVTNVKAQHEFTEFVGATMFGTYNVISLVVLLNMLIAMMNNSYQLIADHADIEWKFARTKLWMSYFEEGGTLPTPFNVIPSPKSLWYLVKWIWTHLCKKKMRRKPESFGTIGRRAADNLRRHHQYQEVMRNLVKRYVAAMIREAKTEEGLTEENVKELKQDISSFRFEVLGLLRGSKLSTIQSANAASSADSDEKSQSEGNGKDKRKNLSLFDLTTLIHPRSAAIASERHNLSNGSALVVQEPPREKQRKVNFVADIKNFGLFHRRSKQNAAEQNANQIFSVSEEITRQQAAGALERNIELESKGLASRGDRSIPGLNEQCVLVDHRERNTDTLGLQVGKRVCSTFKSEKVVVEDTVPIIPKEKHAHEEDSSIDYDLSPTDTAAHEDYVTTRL
# [4] = test system: Streptococcus sp. 'group A'; assay: growth inhibition of control SK(-) GAS strain, dose response, counter-screen for streptokinase expression inhibitor project, luminescence, kanamycin, BacTiterGlo, confirmation (AID 1900); assay type: functional, organism-based
# [5] = test system: Streptococcus; assay: Group A Streptococcus viability loss, dose response, counter-screen for streptokinase expression inhibitor project, luminescence, BacTiterGlo (AID 1915); assay type: functional, organism-based;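 also: potency for reduction of bacterial viability or growth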
# [6] = biological target: T3, Streptokinase A (Streptococcus pyogenes serotype M1, UniProt P10520); assay: S. pyogenes streptokinase expression inhibitors, potency, dose response, plasminogen activation absorbance, OD405 (AID 1914); assay type: functional, Streptococcus pyogenes M1 GAS;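 also: secreted streptokinase activity via plasminogen activation per viability signal from cell pellet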
# T3 sequence (P10520 whole entry): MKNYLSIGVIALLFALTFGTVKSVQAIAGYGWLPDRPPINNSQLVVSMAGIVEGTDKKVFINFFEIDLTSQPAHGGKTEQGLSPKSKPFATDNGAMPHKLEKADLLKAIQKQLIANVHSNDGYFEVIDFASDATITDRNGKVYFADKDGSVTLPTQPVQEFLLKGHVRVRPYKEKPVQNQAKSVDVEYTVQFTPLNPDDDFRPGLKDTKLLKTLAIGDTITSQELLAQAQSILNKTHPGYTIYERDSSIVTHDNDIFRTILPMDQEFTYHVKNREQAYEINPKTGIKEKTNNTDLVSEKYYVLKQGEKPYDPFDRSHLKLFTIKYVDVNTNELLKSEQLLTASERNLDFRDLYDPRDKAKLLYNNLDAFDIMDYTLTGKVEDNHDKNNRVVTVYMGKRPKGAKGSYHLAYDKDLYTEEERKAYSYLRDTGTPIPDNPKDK
# [7] = biological target: T2, Short transient receptor potential channel 4; assay: mouse TRPC4 channel inhibitors, dose response, cell-based, HEK293 TRPC4/mu-opioid, Fluo-4 calcium (AID 434942); assay type: functional;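 also: potency of inhibitors blocking the TRPC4 calcium response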
# [8] = test system: HEK293; assay: inhibitors of LMP1-driven NF-kB reporter, dose response, cell-based, HEK293, luciferase, cherry-pick (AID 588343); assay type: functional; conditions: Homo sapiens
# [9] = cells; assay type: functional
# [10] = Vero E6 cell cytotoxicity, dose response, cytotoxicity control for non-replicating M. tuberculosis project, secondary assay (AID 492998); assay type: functional, VeroE6; conditions: Vero C1008
# [11] = biological target: T4, Cytochrome P450 1A2 (Homo sapiens, UniProt P05177);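 also: PubChem cytochrome P450 panel assay, CYP1A2 panel member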
# T4 sequence (P05177 whole entry): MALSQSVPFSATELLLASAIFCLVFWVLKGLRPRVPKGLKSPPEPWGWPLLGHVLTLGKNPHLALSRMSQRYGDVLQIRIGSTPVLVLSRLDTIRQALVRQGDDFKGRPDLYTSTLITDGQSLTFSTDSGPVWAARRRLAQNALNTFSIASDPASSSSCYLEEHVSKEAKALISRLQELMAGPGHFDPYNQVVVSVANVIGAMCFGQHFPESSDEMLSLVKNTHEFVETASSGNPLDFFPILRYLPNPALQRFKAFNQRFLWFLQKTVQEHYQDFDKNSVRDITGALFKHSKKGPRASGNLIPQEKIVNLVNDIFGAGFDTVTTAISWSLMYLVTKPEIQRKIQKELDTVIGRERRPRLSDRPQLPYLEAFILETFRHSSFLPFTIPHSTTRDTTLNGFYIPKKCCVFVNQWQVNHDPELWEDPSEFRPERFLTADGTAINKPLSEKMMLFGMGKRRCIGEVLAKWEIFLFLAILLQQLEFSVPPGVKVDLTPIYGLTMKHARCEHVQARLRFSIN
# [12] = biological target: Nonstructural protein 1 (Influenza A virus, UniProt Q194T2); assay type: functional, Influenza A virus (A/California/07/2009(H1N1))
# [13] = biological target: T5, Microphthalmia-associated transcription factor (Homo sapiens, UniProt O75030); assay: TRPM1 promoter luciferase signal decrease, dose response, MITF inhibitor project, cell-based, SK-MEL-5, cherry-picked, set 3 (AID 493073); assay type: functional
# T5 sequence (O75030 whole entry): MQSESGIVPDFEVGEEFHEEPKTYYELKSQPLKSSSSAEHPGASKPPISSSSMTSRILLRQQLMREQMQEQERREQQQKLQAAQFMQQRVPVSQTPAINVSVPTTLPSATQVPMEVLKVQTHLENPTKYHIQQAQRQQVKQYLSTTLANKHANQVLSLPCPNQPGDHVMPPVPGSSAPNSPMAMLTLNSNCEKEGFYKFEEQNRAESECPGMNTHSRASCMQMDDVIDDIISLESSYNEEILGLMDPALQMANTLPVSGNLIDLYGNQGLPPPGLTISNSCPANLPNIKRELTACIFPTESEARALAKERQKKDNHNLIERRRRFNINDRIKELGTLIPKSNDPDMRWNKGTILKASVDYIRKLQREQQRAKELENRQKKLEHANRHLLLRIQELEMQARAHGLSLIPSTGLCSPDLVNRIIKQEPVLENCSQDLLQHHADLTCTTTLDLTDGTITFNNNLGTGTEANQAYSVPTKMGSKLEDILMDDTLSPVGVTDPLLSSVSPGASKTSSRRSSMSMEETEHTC
# [14] = C. albicans growth with fluconazole, confirmation, fluorescence, retest (AID 2467); assay type: functional, cell-based
# [15] = NIH-3T3 fibroblast cytotoxicity, dose response, cytotoxicity control, cell-based, fluorescence, Alamar Blue, secondary assay (AID 2327); assay type: functional;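 also: NIH-3T3 mouse fibroblasts cultured with fluconazole at 8 µg/mL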
# [16] = biological target: Dual specificity tyrosine-phosphorylation-regulated kinase 1A (Rattus norvegicus, UniProt Q63470); assay type: biochemical, Homo sapiens
# [17] = biological target: T6, High affinity choline transporter 1 (Homo sapiens, UniProt Q9GZV3); assay: CHT inhibitors, dose response, cell-based, 5-point CRC, membrane potential dye (AID 504840); assay type: functional
# T6 sequence (Q9GZV3 whole entry): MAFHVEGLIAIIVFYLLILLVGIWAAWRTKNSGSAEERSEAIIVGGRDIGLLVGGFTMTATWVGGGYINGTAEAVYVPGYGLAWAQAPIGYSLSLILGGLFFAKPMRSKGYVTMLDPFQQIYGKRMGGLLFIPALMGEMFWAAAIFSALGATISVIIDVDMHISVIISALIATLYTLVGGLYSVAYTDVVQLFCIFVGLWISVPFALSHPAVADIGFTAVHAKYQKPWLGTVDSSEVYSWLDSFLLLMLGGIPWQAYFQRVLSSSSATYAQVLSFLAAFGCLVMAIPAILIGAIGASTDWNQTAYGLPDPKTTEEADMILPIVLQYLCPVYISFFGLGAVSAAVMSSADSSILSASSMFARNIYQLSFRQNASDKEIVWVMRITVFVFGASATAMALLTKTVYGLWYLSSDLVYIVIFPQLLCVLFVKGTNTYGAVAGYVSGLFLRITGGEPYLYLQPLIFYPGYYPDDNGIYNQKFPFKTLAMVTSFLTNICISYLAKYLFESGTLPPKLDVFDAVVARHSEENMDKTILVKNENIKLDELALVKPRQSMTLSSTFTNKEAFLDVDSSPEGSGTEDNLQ
# [18] = inhibitors of SNCA 5'UTR-driven reporter translation, confirmation, H4 neuroglioma cells, luminescence (AID 1988); assay type: functional, cell-based
# [19] = Luminescence Cell-Based Dose Response HTS to Identify Inhibitors of 5'UTR Stem-Loop Driven Prion Protein mRNA Translation in H4 Neuroglioblastoma Cells. [Related pubchem assays: 1827 (Project Summary), 1813 (Primary HTS)]; assay type: functional
# [20] = inhibitors of firefly luciferase expression or activity, dose response, H4 neuroglioma cells, luminescence (AID 1990); assay type: functional, cell-based
# [21] = A cytotoxicity screen of small molecule inhibitors of the PhoP region in Salmonella typhi identified in the primary screen. [Related pubchem assays: 1850, 1864, 1985 ]; assay type: functional
# Sequence of Cytochrome P450 3A4 (P08684 whole entry): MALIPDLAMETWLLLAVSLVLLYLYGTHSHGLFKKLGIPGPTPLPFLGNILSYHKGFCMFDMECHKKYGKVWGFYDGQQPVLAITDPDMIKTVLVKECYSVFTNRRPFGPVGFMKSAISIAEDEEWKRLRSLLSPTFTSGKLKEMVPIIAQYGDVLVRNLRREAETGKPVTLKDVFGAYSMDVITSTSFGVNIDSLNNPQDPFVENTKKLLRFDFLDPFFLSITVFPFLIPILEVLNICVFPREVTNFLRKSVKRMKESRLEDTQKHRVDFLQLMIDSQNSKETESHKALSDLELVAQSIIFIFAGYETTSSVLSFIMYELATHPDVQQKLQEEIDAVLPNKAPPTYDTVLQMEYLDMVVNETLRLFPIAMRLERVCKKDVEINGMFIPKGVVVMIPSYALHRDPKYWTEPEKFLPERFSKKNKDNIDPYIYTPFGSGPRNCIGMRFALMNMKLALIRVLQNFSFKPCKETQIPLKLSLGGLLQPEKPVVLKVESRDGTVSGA
# Sequence of Nonstructural protein 1 (Q194T2 whole entry): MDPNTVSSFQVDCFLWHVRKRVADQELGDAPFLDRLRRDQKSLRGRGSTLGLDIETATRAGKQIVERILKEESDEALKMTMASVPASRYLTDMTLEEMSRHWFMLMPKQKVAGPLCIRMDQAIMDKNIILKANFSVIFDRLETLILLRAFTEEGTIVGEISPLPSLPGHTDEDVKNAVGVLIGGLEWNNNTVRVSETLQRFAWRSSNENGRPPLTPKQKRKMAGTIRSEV
structure (smiles),measurement,setting,value
O=C(CSc1nccc(O)n1)N1N=C2/C(=C/c3ccco3)CCCC2C1c1ccco1 (centres undefined),IC50,[1],13 µM (active)
CSc1nc2cc(S(=O)(=O)N3CCCCC3)ccc2s1,AC50,[2],inconclusive
COc1ccc(CCN(C)C(=O)C2CCCN(C3CCN(Cc4ccccc4)CC3)C2)cc1OC (centres undefined),EC50,[3],1.19 µM (active)
Cc1ccc(Cn2c(Cc3ccccc3)nc3ccccc32)cc1,EC50,[4],12.5 µM (active)
same,EC50,[5],61.3 µM (active)
same,EC50,[6],> 150 µM (not active)
same,EC50,[7],0.668 µM (active)
COc1ccc(S(=O)(=O)NCCc2csc(-c3cccnc3)n2)cc1,AC50,[8],144 µM (active)
O=C(c1ccccc1)c1nc[nH]c1C(=O)Nc1ccccc1,IC50,[9],12.5 µM (active)
same,CC50,[10],> 20 µM (active)
CC(=O)OCC(=O)[C@@]1(OC(C)=O)[C@H](C)C[C@H]2[C@@H]3C[C@H](F)C4=CC(=O)C=C[C@@]4(C)[C@]3(F)[C@H](O)C[C@@]21C,AC50,[11],12.6 µM (inconclusive)
same,AC50,[2],inconclusive
CCOC(=O)C1=C(C)N=C2c3ccccc3C(=O)C2C1c1ccc(C)cc1 (centres undefined),IC50,[12],> 100 µM (active)
same,AC50,[2],inconclusive
Nc1ncnc(Sc2ncccn2)c1[N+](=O)[O-],AC50,[13],11.7 µM (active)
same,EC50,[14],1 µM (active)
same,EC50,[15],7.47 µM (inconclusive)
N#Cc1ccccc1S(=O)(=O)N1CCN(C(=O)C2COc3ccccc3O2)CC1 (centres undefined),IC50,[1],3.54 µM (active)
O=C(c1cc(C(F)(F)F)cc(C(F)(F)F)c1)N1CCC2(CC1)CCN(c1ccncc1)CC2,AC50,[11],25.1 µM (inconclusive)
same,AC50,[2],inconclusive
CC(=O)Oc1ccc(/C=C(\NC(=O)c2ccco2)C(=O)NCc2ccccc2)cc1,EC50,[7],1.68 µM (active)
O=C(O)/C=C/c1cccc(NC(=O)Nc2ccc([N+](=O)[O-])cc2)c1,AC50,[16],5.42 µM (active)
COc1cccc(CN2CCNC(=O)C2CC(=O)N(C)CCc2ccccn2)c1OC (centres undefined),EC50,[3],6.68 µM (active)
Cc1ccc(C(=O)OCC(=O)c2ccc(CC(=O)N3CCOCC3)s2)c(C)c1,IC50,[1],4.73 µM (active)
CCc1ccccc1NC(=O)COc1ccc2oc(-c3ccc(OC)cc3)cc(=O)c2c1,IC50,[1],8.65 µM (active)
COc1cc2c(cc1OC)C(C)N(CCc1ccc(Cl)cc1)CC2 (centres undefined),EC50,[7],0.105 µM (active)
CC(/C=N/NC(=O)c1cc(-c2ccncc2)nc2ccccc12)=C\c1ccco1,AC50,[13],2.4 µM (active)
same,IC50,[17],9.98 µM (active)
O=C(N/N=C/c1ccccc1O)c1cc[n+]([O-])cc1,IC50,[12],4.49 µM (active)
C(=N\Nc1[nH]cnc2ncnc1-2)/c1cccs1,AC50,[16],5.83 µM (active)
O=C(N/N=C1\CCCc2c1[nH]c1ccc(Cl)cc21)c1ccncc1,EC50,[18],10.3 µM (active)
same,IC50,[9],0.6 µM (active)
same,EC50,[19],25.8 µM (active)
same,EC50,[20],11.1 µM (active)
same,CC50,[10],9.43 µM (active)
CCc1nccc2c1[nH]c1ccccc12,AC50,[16],5.67 µM (active)
same,EC50,[7],2.99 µM (active)
same,EC50,[21],> 50 µM (active)
CC(C)OC(=O)C(C)(C)Oc1ccc(C(=O)c2ccc(Cl)cc2)cc1 [FENOFIBRATE],AC50,[2],inconclusive
